In patent US4983597A, “Beta-lactams as anticholesterolemic agents” (Merck & Co., Inc., priority 1989, dated 1991) one finds IC50 data, which are given here for twelve compounds.

Molecules are shown by their SMILES.

The target in the first assay is T1, HMG-CoA synthase (Rattus norvegicus, UniProt P17425).
T1 construct: The livers from male Charles River CD rats (225-350 g) were homogenized; from tissue; host or cells: rat liver (male Charles River CD rats), 100,000 x g supernatant, ammonium sulfate and DEAE-52 fraction
T1 sequence (P17425 1-520): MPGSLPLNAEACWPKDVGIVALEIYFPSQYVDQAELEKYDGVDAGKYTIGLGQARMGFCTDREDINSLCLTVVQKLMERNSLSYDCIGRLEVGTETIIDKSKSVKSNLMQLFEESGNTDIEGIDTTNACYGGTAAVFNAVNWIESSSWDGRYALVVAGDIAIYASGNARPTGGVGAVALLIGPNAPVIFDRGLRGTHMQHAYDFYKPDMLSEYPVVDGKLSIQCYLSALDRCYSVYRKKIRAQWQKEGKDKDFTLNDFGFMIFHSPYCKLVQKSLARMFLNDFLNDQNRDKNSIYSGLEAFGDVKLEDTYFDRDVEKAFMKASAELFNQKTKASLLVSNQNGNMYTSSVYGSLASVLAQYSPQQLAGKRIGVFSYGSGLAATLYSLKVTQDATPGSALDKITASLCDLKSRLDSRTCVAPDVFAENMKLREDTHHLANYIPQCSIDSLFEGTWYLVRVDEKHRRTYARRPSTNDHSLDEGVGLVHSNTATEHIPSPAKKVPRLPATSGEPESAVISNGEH
In words: HMG-CoA Synthase Inhibition Assay. It is filed as biochemical. Particulars: Table II; rat liver enzyme, 1-[14C]-acetyl-CoA incorporation. The procedure:
The intrinisic HMG-CoA synthase inhibition activity of the compounds of this invention is measured by the standard in vitro protocol described below:
The livers from male Charles River CD rats (225-350 g) were homogenized in 0.25 M sucrose which was adjusted with phenylmethylsulfonylfluoride (PMSF) and N-p-tosyl-1-lysine chloromethyl ketone (TLCK) so that the final concentration of each was […], respectively. The homogenate was centrifuged at 15,000× g for 20 minutes, the supernatant filtered through a fine nylon screen to remove most of the fat layer and recentrifuged at 100,000× g for 1 hour. This supernatant was removed and 1 M potassium phosphate, dithiothreitol (DTT) and ethylene glycolbis(β-aminoethyl ether)-N,N,N',N'-tetraacetic acid (EGTA) added to give a final concentration of 0.1 M (pH 7.2), 0.5 mM and 0.1 mM, respectively. Solid ammonium sulfate was added to 50% saturation to the protein solution, it was centrifuged at 15,000× g and the supernatant discarded. This precipitated protein could be stored at -70° C. for at least one month with very little loss of activity. The ammonium sulfate precipitate was dissolved in an minimal amount of 0.06 M potassium phosphate buffer (pH 7.2) containing 0.5 mM dithiothreitol and 0.1 mM EGTA (referred to as 0.06 M phosphate buffer) and dialyzed overnight against 2 liters of the same buffer to remove the ammonium sulfate and to inactivate HMG-CoA lyase [Clinkenbeard, et al., J. Biol. Chem. 250, 3108-3116(1975)].
The dialyzed extract was added to a column of DEAE-52 (Whatman) which had been equilibrated with 0.06 M phosphate buffer (10 mg of protein in 1 ml bed volume of the resin). The DEAE-cellulose was eluted with 0.06 M phosphate buffer until the optical density at 280 nm was essentially zero. This fraction contained the β-ketoacetyl-CoA thiolase activity. The HMG-CoA synthase was eluted from the column with 0.1 M phosphate buffer (pH 7.2) containing 0.5 mM DTT and […] EGTA, and was virtually free of all thiolase activity. The protein was precipitated by the addition of ammonium sulfate to give 50% saturation. This solution was stirred for 10 minutes at 4° C. and the precipitate collected by centrifugation at 15,000 rpm for 10 minutes. The supernatant was discarded and the precipitate dissolved in a minimum of 0.06 M phosphate buffer, pH 7.2 (about 10 ml) and the enzyme stored at -80° C.
HMG-CoA Synthase Inhibition Assay
Enzyme protein (ca. 24 mg) was added to a solution containing […] Tris-HCl (pH 8.0), 11.7 μM MgCl2, 1.17 μM ethylenediaminetetraacetic acid (EDTA), 0.58 μM dithiothreitol, and the indicated concentrations of the test compound (added as a 2 mg/ml solution in dimethylsulfoxide). The incubation took place in a volume of 0.085 ml at 30° in a shaking water bath. After 5 minutes, […] of a solution containing acetoacetyl-CoA and 0.1 μCi of 1-[^14 C]-acetyl-CoA was added to give a final concentrations of 0.1 and 0.4 μM, respectively. The incubation was continued for 10 more minutes and the reaction stopped by the addition of […] of the assay mixture to 0.2 ml of 6N HCl in a glass scintillation vial. The vial was heated for 1 hour at 120° after which time 0.2 ml more of 6N HCl was again added to each vial and the heating continued for another hour. Following this, 1.0 ml of 0.9% saline was added to each vial and finally 10 ml of scintillation liquid. Radioactivity was determined in a Packard Tri-Carb liquid scintillation counter. Percent inhibition is calculated by the formula: [formula]
IC50 values were determined by plotting the log of the concentration of the test compound verses the percentage inhibition and fitting a straight line to the resulting data by using the least squares method.
One may read the IC50 as the concentration needed to halve the response being measured. `CO[C@H](C(=O)OC[C@@H]1CC(=O)N1S(=O)(=O)c1ccc(C)cc1)c1ccccc1` [Table II e]: the IC50 stood at 42 nM. Still for that read-out and setting: the value for `CO[C@@H](C(=O)OC[C@@H]1CC(=O)N1S(=O)(=O)c1ccc(C)cc1)c1ccccc1` [Table II f] was 50 nM; that for `CC[C@@H]1C(=O)N(S(=O)(=O)c2ccc(C)cc2)[C@@H]1COC(=O)/C=C/c1ccc(OC)cc1` [Table II k] was 11 nM.

The same assay, now with this note: Table V; rat liver enzyme, 1-[14C]-acetyl-CoA incorporation.
`CCC1C(=O)N(S(=O)(=O)c2ccc(C)cc2)C1C(C)OC(=O)c1ccc(OC)cc1` (stereo not drawn) [Table V c] gave an IC50 of 120 nM. On the same count and under the same terms, the value for `CCC1C(=O)N(S(=O)(=O)c2ccc(C)cc2)C1C(C)Cc1ccccc1` (stereo not drawn) [Table V d] was 175 nM. Still for that read-out and setting: to `CCC1C(=O)N(S(=O)(=O)c2ccc(C)cc2)C1C(OC(=O)c1ccc(OC)cc1)c1ccccc1` (stereo not drawn) [Table V e] belongs 2000 nM; to `CC(=O)OC(c1ccccc1)C(C)C1CC(=O)N1S(=O)(=O)c1ccc(C)cc1` (stereo not drawn) [Table V f], 490 nM; to `CC(=O)OCC(C)C1CC(=O)N1S(=O)(=O)c1ccc(C)cc1` (stereo not drawn) [Table V g], 290 nM.

Staying with this assay, now noted: Table VI; rat liver enzyme, 1-[14C]-acetyl-CoA incorporation.
`Cc1ccc(S(=O)(=O)N2C(=O)C(C)(C)C2CCc2ccccc2)cc1` (stereo not drawn) [Table VI a] displayed an IC50 of 1800 nM. In other words, the single-digit micromolar range. The same measure, in the same setting: the value for `Cc1ccc(S(=O)(=O)N2C(=O)C(C)(C)C2C(Cc2ccccc2)OC(=O)c2ccccc2)cc1` (stereo not drawn) [Table VI b] was 400 nM; that for `Cc1ccc(S(=O)(=O)N2C(=O)C(C)(C)C2C=Cc2ccccc2)cc1` (stereo not drawn) [Table VI c] was 680 nM; that for `Cc1ccc(S(=O)(=O)N2C(=O)C(C)(C)C2C2OC2c2ccccc2)cc1` (stereo not drawn) [Table VI d] was 110 nM.
